Measurements published in publication PMC11172478, “1,3,5-Triazine as Branching Connector for the Construction of Novel Antimicrobial Peptide Dendrimers: Synthesis and Biological Characterization” (International Journal of Molecular Sciences, 2024).
Values after ≈ are worked out from the molar mass of the structure shown. Read-outs that look alike come from different tables or passages of the source. Starred links: 1 amine or outer side, 2 acyl side, 3 side chain; linkers in the order of their positions; H or OH if unused. Positions of bridges follow the written chain, without caps; N, C: chain ends. Non-standard residues stand in square brackets, D forms with d. Residues, ends and D or L forms follow the SMILES beside them. Chains are numbered I, II in the order given. *: point of attachment. X3 = CC(=O)NCCNc1nc(NCCNC(C)=O)nc(N([C@@H](CC(C)C)C(=O)[*:2])[*:1])n1; X4 = CC(=O)NCCNc1nc(NCCNC(C)=O)nc(Oc2ccc(C(=O)*)cc2)n1; X2 = CC[C@H](C)CCCCC(=O)*; Dab = NCC[C@H](N)C(=O)O

Key:
Type in all cases: cell-based
P. aeruginosa ATCC 27853 = details: ATCC 27853, 24 h
Method: (§1) The antimicrobial activity of the dendrimers was evaluated against E. coli ATCC 25922, P. aeruginosa ATCC 27853 and S. aureus ATCC 29213 strains. The MIC values were determined by the broth microdilution method. Briefly, the different strains were grown in Muller Hinton broth cation adjusted (MHBCA) medium overnight at 37 °C with shaking at 200 rpm. The bacterial cultures were then adjusted to OD625nm of 0.08–0.1, and 5 μL of each diluted suspension was added to 96-well plates previously filled with MHBCA and serially diluted peptides. Plates were incubated for 24 h at 37 °C. Finally, the MIC was determined macroscopically, based on the visual turbidity of the wells.

S. aureus ATCC 29213 = details: ATCC 29213, 24 h
Method: as §1

E. coli ATCC 25922 = details: ATCC 25922, 24 h
Method: as §1

E. coli 208691 = test: microbe, parasite or virus in culture
Method: (§2) E. coli ATCC 25922, P. aeruginosa ATCC 27853, S. aureus ATCC 29213, P. aeruginosa 666 SJD (ciprofloxacin-resistant), P. aeruginosa P12, P13, P15, P16 and P17 (MDR isolates) and E. coli 7987, 5545, 8248, 13974, 7259 and 208691 (MDR isolates) from our own collection were included in the present study.
as §1

P. aeruginosa P16 = test: microbe, parasite or virus in culture; details: MDR isolate P. aeruginosa P16
Method: as §2, §1

P. aeruginosa P17 = test: microbe, parasite or virus in culture
Method: as §2, §1

P. aeruginosa P15 = test: microbe, parasite or virus in culture
Method: as §2, §1

P. aeruginosa P13 = test: microbe, parasite or virus in culture
Method: as §2, §1

P. aeruginosa P12 = test: microbe, parasite or virus in culture; details: MDR isolate P. aeruginosa P12
Method: as §2, §1

E. coli 7987 = test: microbe, parasite or virus in culture; details: Escherichia coli; MDR isolate E. coli 7987; read-out: MIC
Method: as §2, §1

E. coli 7259 = test: microbe, parasite or virus in culture; details: Escherichia coli; MDR isolate E. coli 7259; read-out: MIC
Method: as §2, §1

E. coli 13974 = test: microbe, parasite or virus in culture; details: Escherichia coli; MDR isolate E. coli 13974; read-out: MIC
Method: as §2, §1

E. coli 5545 = test: microbe, parasite or virus in culture; details: Escherichia coli; MDR isolate E. coli 5545; read-out: MIC
Method: as §2, §1

E. coli 8248 = test: microbe, parasite or virus in culture; details: Escherichia coli; MDR isolate E. coli 8248; read-out: MIC
Method: as §2, §1

[1] = Pseudomonas aeruginosa, read-out: MIC

| Compound | MIC P. aeruginosa ATCC 27853 (P. aeruginosa ATCC 27853) | MIC S. aureus ATCC 29213 (S. aureus ATCC 29213) | MIC E. coli ATCC 25922 (E. coli ATCC 25922) | further results |
| --- | --- | --- | --- | --- |
| CC(=O)NCCNc1nc(NCCNC(C)=O)nc(N[C@@H](CC(C)C)C(=O)N[C@@H](CCCCN)C(=O)N[C@@H](CC(C)C)C(=O)N[C@@H](CCCCN)C(=O)N[C@@H](CC(C)C)C(=O)N[C@@H](CCCCN)C(N)=O)n1 [E, (Ac-EDA)2-TA-(LK)3-NH2] (H-[X3]KLKLK-NH2) | >64 µg/mL | >64 µg/mL | >64 µg/mL |  |
| CC(C)C[C@H](NC(=O)[C@H](CCCCN)NC(=O)[C@H](CC(C)C)NC(=O)[C@H](CCCCN)NC(=O)[C@H](CC(C)C)NC(=O)[C@H](CCCCNC(=O)[C@H](CCCCN)NC(=O)[C@H](CC(C)C)NC(=O)[C@H](CCCCN)NC(=O)[C@H](CC(C)C)NC(=O)[C@H](CCCCN)NC(=O)[C@@H](N)CC(C)C)NC(=O)[C@H](CCCCN)NC(=O)[C@H](CC(C)C)NC(=O)[C@H](CCCCN)NC(=O)[C@H](CC(C)C)NC(=O)[C@H](CCCCN)NC(=O)[C@@H](N)CC(C)C)C(=O)N[C@@H](CCCCN)C(N)=O [F, H-[(LK)3]2-K-(LK)3-NH2] (I: H-LKLKLKKLKLKLK-NH2 / II: H-LKLKLK; amide I:7-II:C) | >64 µg/mL | 64 µg/mL (≈ 27.6 µM) | 32 µg/mL (≈ 13.8 µM) |  |
| CC(C)C[C@H](NC(=O)[C@H](Cc1ccccc1)NC(=O)CNC(=O)c1ccc(Oc2nc(NCCNC(=O)[C@H](CCCCN)NC(=O)[C@H](CC(C)C)NC(=O)[C@H](CCCCN)NC(=O)[C@H](CC(C)C)NC(=O)[C@H](CCCCN)NC(=O)[C@@H](N)CC(C)C)nc(NCCNC(=O)[C@H](CCCCN)NC(=O)[C@H](CC(C)C)NC(=O)[C@H](CCCCN)NC(=O)[C@H](CC(C)C)NC(=O)[C@H](CCCCN)NC(=O)[C@@H](N)CC(C)C)n2)cc1)C(N)=O [B, H-[(LK)3-EDA]2-TA-PHBA-GFL-NH2] | 32 µg/mL (≈ 15.3 µM) | >64 µg/mL | 64 µg/mL (≈ 30.5 µM) |  |
| CC[C@H](C)CCCCC(=O)N[C@@H](CCN)C(=O)N[C@H](C(=O)N[C@@H](CCN)C(=O)N[C@H]1CCNC(=O)[C@H]([C@@H](C)O)NC(=O)[C@H](CCN)NC(=O)[C@H](CCN)NC(=O)[C@H](CC(C)C)NC(=O)[C@@H](CC(C)C)NC(=O)[C@H](CCN)NC1=O)[C@@H](C)O [Colistin, reference compound] (X2-[Dab]T[Dab][Dab][Dab][dL]L[Dab][Dab]T; lactam 4-C (inferred); N-terminus assumed) |  |  |  | MIC (E. coli 208691; MDR isolate E. coli 208691): 0.5 µg/mL (≈ 0.428 µM); MIC (P. aeruginosa P16): 16 µg/mL (≈ 13.7 µM); MIC (P. aeruginosa P17; MDR isolate P. aeruginosa P17): >8 µg/mL; MIC (P. aeruginosa P15; MDR isolate P. aeruginosa P15): >128 µg/mL; MIC (P. aeruginosa P13; MDR isolate P. aeruginosa P13): 32 µg/mL (≈ 27.4 µM); MIC (P. aeruginosa P12): 64 µg/mL (≈ 54.7 µM) |
| CC(=O)NCCNc1nc(NCCNC(C)=O)nc(Oc2ccc(C(=O)NCC(=O)N[C@@H](Cc3ccccc3)C(=O)N[C@@H](CC(C)C)C(N)=O)cc2)n1 [C, (Ac-EDA)2-TA-PHBA-GFL-NH2] | >64 µg/mL | >64 µg/mL | >64 µg/mL |  |
| CC(=O)NCCNc1nc(NCCNC(C)=O)nc(Oc2ccc(C(=O)N[C@@H](CC(C)C)C(=O)N[C@@H](CCCCN)C(=O)N[C@@H](CC(C)C)C(=O)N[C@@H](CCCCN)C(=O)N[C@@H](CC(C)C)C(=O)N[C@@H](CCCCN)C(N)=O)cc2)n1 [D, (Ac-EDA)2-TA-PHBA-(LK)3-NH2] (X4-LKLKLK-NH2) | >64 µg/mL | >64 µg/mL | >64 µg/mL |  |
| CC(C)C[C@H](NC(=O)[C@H](CCCCN)NC(=O)[C@H](CC(C)C)NC(=O)[C@H](CCCCN)NC(=O)[C@@H](N)CC(C)C)C(=O)N[C@@H](CCCCN)C(N)=O [A, H-Leu-Lys-Leu-Lys-Leu-Lys-NH2] (H-LKLKLK-NH2) | >64 µg/mL | >64 µg/mL | >64 µg/mL |  |
| CC(C)C[C@H](NC(=O)[C@H](CCCCN)NC(=O)[C@H](CC(C)C)NC(=O)[C@H](CCCCN)NC(=O)[C@H](CC(C)C)NC(=O)[C@H](CCCCN)NC(=O)[C@H](CC(C)C)NC(=O)[C@H](CCCCN)NC(=O)[C@H](CC(C)C)NC(=O)[C@H](CCCCN)NC(=O)[C@H](CC(C)C)NC(=O)[C@H](CCCCN)NC(=O)[C@H](CC(C)C)NC(=O)[C@H](CCCCN)NC(=O)[C@H](CC(C)C)NC(=O)[C@H](CCCCN)NC(=O)[C@@H](N)CC(C)C)C(=O)N[C@@H](CCCCN)C(N)=O [G, H-(Leu-Lys)9-NH2] (H-LKLKLKLKLKLKLKLKLK-NH2) | >64 µg/mL | >64 µg/mL | >64 µg/mL |  |
| O=C(O)c1cn(C2CC2)c2cc(N3CCNCC3)c(F)cc2c1=O [Ciprofloxacin, reference compound] |  |  |  | MIC (E. coli 208691; Escherichia coli, 208691): 256 µg/mL (≈ 773 µM); MIC (P. aeruginosa P16; [1]): 64 µg/mL (≈ 193 µM); MIC (P. aeruginosa P17; Pseudomonas aeruginosa, P17): 256 µg/mL (≈ 773 µM); MIC (E. coli 7987): 32 µg/mL (≈ 96.6 µM); MIC (P. aeruginosa P15; Pseudomonas aeruginosa, P15): 256 µg/mL (≈ 773 µM); MIC (E. coli 7259): 32 µg/mL (≈ 96.6 µM); MIC (P. aeruginosa P13; Pseudomonas aeruginosa, P13): 128 µg/mL (≈ 386 µM); MIC (E. coli 13974): 32 µg/mL (≈ 96.6 µM); MIC (E. coli 5545): 64 µg/mL (≈ 193 µM); MIC (P. aeruginosa P12; [1]): 64 µg/mL (≈ 193 µM); MIC (E. coli 8248): 32 µg/mL (≈ 96.6 µM) |
